How the values were obtained:
[1] = Measurement of unsaturated bond formation (lyase activity) using absorbance at 232 nm; format: biochemical; settings: 0.2% heparin, measured every 10 minutes for 1 hour, FIG. 1
Method: Measurement of Unsaturated Bond Formation Using Absorbance at 232 nm:
Reactions were prepared in 1 ml quartz cuvettes. For heparinase I [Lavobacterium heparinum, Sigma, Cat. No. H2519], 3 units enzyme were added to a reaction mixture A (18 mM Tris buffer pH 7.5, 45 mM NaCl, 4 mM CaCl2, 0.01% BSA) containing 0.2% heparin. For recombinant heparanase (expressed in insect cells, see, U.S. patent application Ser. Nos. 08/922,170; 09/071,618; 09/109,386; 09/258,892 and 09/260,038 and in PCT/US98/17954 and PCT/US98/09256, all of which are incorporated herein by reference), 5 mg enzyme were added to a reaction mixture B (20 mM phosphate citrate buffer pH 5.4, 1 mM CaCl2, 1 mM NaCl and 0.01% BSA) containing 0.2% heparin. Absorbance at 232 nm was measured in a Cary 100 (Varian) spectrophotometer every 10 minutes for a period of 1 hour.
Partially purified recombinant human heparanase expressed in insect cells was examined to determine whether it is a lyase or hydrolase. A bacterial heparinase I which is a lyase was used as a control. The formation of an unsaturated bond by lyase activity as measured by 232 nm absorbance was performed as described under experimental procedures above.

[2] = test system: Lewis lung carcinoma; settings: lung metastases induced by Lewis lung carcinoma, experimental animals; cited from earlier work
[3] = test system: mammary adenocarcinoma cells; settings: lung metastases induced by mammary adenocarcinoma cells, experimental animals; cited from earlier work
[4] = test system: B16 melanoma; settings: lung metastases induced by B16 melanoma, experimental animals; cited from earlier work

Substance | lyase activity: 232 nm absorbance (formation of Δ4,5 unsaturated bond of heparin) [1] | reduction of the incidence of lung metastases [2] [%] | reduction of the incidence of lung metastases [3] [%] | reduction of the incidence of lung metastases [4] [%]
heparinase I | linear increase |  |  | 
laminarin sulfate |  | > 90 | > 90 | > 90
